Like-named read-outs stand apart in the source and are kept apart here. Blank lines part the entries; values can stand above or below the compound they belong to.
How the values were obtained:
[1] = molecular target: AII receptor; experiment: Angiotensin II receptor binding (displacement of 3H-AII); settings: read-out: Angiotensin II Receptor Binding IC50, rat adrenal cortical microsomes, 2 nM 3H-AII, 1 hour, room temperature
Procedure: The assay was carried out according to the method described by [Glossmann et al., J. Biol. Chem., 249, 825 (1974)], but with some modifications. The reaction mixture contained rat adrenal cortical microsomes (source of AII receptor) in Tris buffer and 2 nM of ^3 H-AII with or without potential AII antagonist. This mixture was incubated for 1 hour at room temperature and the reaction was subsequently terminated by rapid filtration and rinsing through glass micro-fibre filter. Receptor-bound ^3 H-AII trapped in filter was quantitated by scintillation counting.
(§1) Compounds listed in Table 26 were tested in the same manner as described for Table 25, except that in the test for antihypertensive effects in renal hypertensive rats, the compounds were administered orally at 30 mg/kg and intravenously at 3 mg/kg.

[2] = tested on: Renal Hypertensive Rats; experiment: Antihypertensive effects in renal hypertensive rats; type: in vivo; settings: Rattus norvegicus, Table 25; for minimal effective dose at 10 mg/kg: intravenous, 10 mg/kg or less; for minimal effective dose at 100 mg/kg: oral, 100 mg/kg or less
Procedure: This procedure increases blood pressure by increasing renin production with consequent elevation of AII levels. Compounds are administered orally at 100 mg/kg and/or intravenously via a cannula in the jugular vein at 10 mg/kg. Arterial blood pressure is continuously measured directly through a carotid artery cannula and recorded using a pressure transducer and a polygraph. Blood pressure levels after treatment are compared to pretreatment levels to determine the antihypertensive effects of the compounds (See Table 25).
as §1

[3] = Table 25, tested as sodium salt

Compound: CCCCc1nc(CO)c(Cl)n1Cc1ccc(-c2occc2C(=O)O)cc1 (single isomer, unassigned) [Example 179, 2-n-butyl-1-[4-(3-carboxyfuran-2-yl)benzyl]-5-chloro-4-(hydroxymethyl)imidazole]
- IC50 ([1]; Table 25): 4400 nM
- minimal effective dose at 10 mg/kg [2]: < 10 mg/kg
- minimal effective dose at 100 mg/kg [2]: > 100 mg/kg

Compound: CCCCc1nc(Cl)c(CC(C)C(=O)N[C@H](C)c2ccccc2)n1Cc1ccc(NC(=O)c2ccccc2C(=O)O)cc1 (single isomer, unassigned) [Example 238, d and l 3-[1-(4-(2-Carboxybenzamido)benzyl-2-butyl-4-chloroimidazol-5-yl]-2-methylpropanoic acid, d-(+)-α-methylbenzylamide]
- IC50 ([1]; Table 25): 110 nM
- minimal effective dose at 10 mg/kg [2]: < 10 mg/kg
- minimal effective dose at 100 mg/kg [2]: > 100 mg/kg

Compound: CCCCc1nc(Cl)c(CC(C)C(=O)N[C@H](C)c2ccccc2)n1Cc1ccc(NC(=O)c2ccccc2C(=O)O)cc1 (single isomer, unassigned) [Example 239, d and l 3-[1-(4-(2-Carboxybenzamido)benzyl-2-butyl-4-chloroimidazol-5-yl]-2-methylpropanoic acid, d-(+)-α-methylbenzylamide]
- IC50 ([1]; Table 25): 120 nM

Compound: CCCCc1nc(Cl)c(CC(=O)OC)n1Cc1ccc(NC(=O)c2ccccc2-c2ccccc2C(=O)O)cc1 [Example 5]
- IC50 [1, 3]: 190 nM
- minimal effective dose at 100 mg/kg ([2]; tested as sodium salt): > 100 mg/kg

Compound: CCCCc1nc(Cl)c(CC(=O)OC)n1Cc1ccc(NC(=O)/C=C\C(=O)O)cc1 [Example 6]
- IC50 ([1]; Table 25): 5700 nM

Compound: CCCCc1nc(Cl)c(CC(=O)OC)n1Cc1ccc(NC(=O)c2c(C(=O)O)cccc2[N+](=O)[O-])cc1 [Example 7]
- IC50 ([1]; Table 25): 420 nM
- minimal effective dose at 10 mg/kg [2]: < 10 mg/kg
- minimal effective dose at 100 mg/kg [2]: > 100 mg/kg

Compound: CCCCc1nc(Cl)c(CC(=O)OC)n1Cc1ccc(NC(=O)c2cc3ccccc3cc2C(=O)O)cc1 [Example 9]
- IC50 [1, 3]: 5800 nM

Compound: CCCCc1nc(Cl)c(CC(=O)OC)n1Cc1ccc(NC(=O)c2c(Cl)ccc(Cl)c2C(=O)O)cc1 [Example 16]
- IC50 ([1]; Table 25): 18 nM
- minimal effective dose at 10 mg/kg [2]: < 10 mg/kg
- minimal effective dose at 100 mg/kg [2]: > 100 mg/kg

Compound: CCCCc1nc(Cl)c(COC(C)=O)n1Cc1ccc(C(=O)O)cc1 [Example 20, 5-Acetoxymethyl-2-butyl-1-(4-carboxybenzyl)-4-chloroimidazole]
- IC50 [1, 3]: 5300 nM

Compound: CCCCc1nc(Cl)c(CO)n1Cc1ccc(N2C(=O)c3ccccc3C2=O)cc1 [Example 28, 2-Butyl-4-chloro-5-hydroxymethyl-1-(4-N-phthalimidobenzyl)imidazole]
- IC50 ([1]; Table 25): 8000 nM

Compound: CCCCc1nc(Cl)c(COC)n1Cc1ccc(C(=O)N[C@@H](Cc2ccccc2)C(=O)O)cc1 [Example 82]
- IC50 ([1]; Table 25): 6100 nM

Compound: CCCCc1nc(Cl)c(COC)n1Cc1ccc(C(=O)N2CCC[C@H]2C(=O)O)cc1 [Example 83]
- IC50 ([1]; Table 25): 6400 nM

Compound: CCc1nc(Cl)c(CO)n1Cc1ccc(-c2ccccc2C(=O)O)cc1 [Example 107]
- IC50 ([1]; Table 25): 1700 nM

Compound: CCCc1nc(Cl)c(CO)n1Cc1ccc(-c2ccccc2-c2nn[nH]n2)cc1 [Example 113]
- IC50 ([1]; Table 25): 20 nM

Compound: CCCc1nc(C(F)(F)C(F)(F)F)c(CO)n1Cc1ccc(-c2ccccc2-c2nn[nH]n2)cc1 [Example 124F]
- IC50 ([1]; Table 26): 1 nM

Compound: CCC=Cc1nc(Cl)c(CO)n1Cc1ccc(-c2ccccc2-c2nnn[nH]2)cc1 [Example 139]
- IC50 ([1]; Table 26): 11 nM

Compound: CCCCc1nc(Cl)c(Cn2ccnc2)n1Cc1ccc(C(=O)c2ccccc2C(=O)O)cc1 [Example 205]
- IC50 [1, 3]: 2500 nM

Compound: CCCCc1nc(Cl)c(CN=[N+]=[N-])n1Cc1ccc(C(=O)c2ccccc2C(=O)O)cc1 [Example 206]
- IC50 [1, 3]: 1400 nM

Compound: CCCCc1nc(Cl)c(/C=C/C(=O)OCC)n1Cc1ccc(NC(=O)c2ccccc2C(=O)O)cc1 [Example 228, 3-[2-Butyl-4-chloro-1-(4-(2-carboxybenzamido)benzyl)imidazol-5-yl]-propenoic acid ethyl ester, E isomer]
- IC50 ([1]; Table 25): 530 nM

Compound: CCCCc1nc(Cl)c(/C=C/COC(C)=O)n1Cc1ccc(NC(=O)c2ccccc2C(=O)O)cc1 [Example 231, 3-[2-Butyl-4-chloro-1-(4-(2-carboxybenzamido)benzyl)imidazol-5-yl]-3-propen-1-ol acetate, E isomer]
- IC50 ([1]; Table 25): 76 nM

Compound: CCCCc1nc(Cl)c(/C=C/CO)n1Cc1ccc(NC(=O)c2ccccc2C(=O)O)cc1 [Example 241]
- IC50 ([1]; Table 25): 170 nM

Compound: CCCCc1nc(Cl)c(/C=C/C(C)O)n1Cc1ccc(NC(=O)c2ccccc2C(=O)O)cc1 (stereo not shown) [Example 243]
- IC50 ([1]; Table 25): 200 nM

Compound: CCCCc1nc(Cl)c(CCCOC(C)=O)n1Cc1ccc(NC(=O)c2ccccc2C(=O)O)cc1 [Example 247]
- IC50 ([1]; Table 25): 110 nM

Compound: CCCCc1nc(C#N)c(C(N)=O)n1Cc1ccc(-c2ccccc2-c2nnn[nH]2)cc1 [Example 342, 2-n-Butyl-5-carboxamido-4-cyano-1-[(2'-(1H-tetrazol-5-yl)biphenyl-4-yl)methyl]imidazole]
- IC50 ([1]; Table 26): 37 nM

Compound: CCCCc1nc(Cl)c(CN2CCN(c3ccccc3OC)CC2)n1Cc1ccc(-c2ccccc2-c2nnn[nH]2)cc1 [Example 354, 2-n-Butyl-4-chloro-5-[(4-(2-methoxyphenyl)piperazin-1-yl)methyl]-1-[(2'-(1H-tetrazol-5-yl)biphenyl-4-yl)methyl]imidazole]
- IC50 ([1]; Table 25): 350 nM
- IC50 ([1]; Table 26): 350 nM

Second part, led by results:

- IC50 ([1]; Table 25): 4500 nM
Compound: CCCCc1nc(Cl)c(CC(=O)OC)n1Cc1ccc(NC(=O)[C@@H]2CCCC[C@@H]2NS(=O)(=O)C(F)(F)F)cc1 (relative stereo) [Example 74 (cis compound), methyl 2-butyl-4-chloro-1-[4-(cis-2-(trifluoromethanesulfonamido)cyclohexanecarboxamido)benzyl]imidazole-5-acetate]
- minimal effective dose at 10 mg/kg [2]: < 10 mg/kg
- minimal effective dose at 100 mg/kg [2]: > 100 mg/kg

- IC50 ([1]; Table 25): 3900 nM
Compound: CCCCc1nc(Cl)c(CC(=O)OC)n1Cc1ccc(NC(=O)[C@@H]2CCCC[C@H]2NS(=O)(=O)C(F)(F)F)cc1 (relative stereo) [Example 74 (trans compound), Methyl 2-butyl-4-chloro-1-[4-(trans-2-(trifluoromethanesulfonamido)cyclohexanecarboxamido)benzyl]imidazole-5-acetate]
- minimal effective dose at 10 mg/kg [2]: < 10 mg/kg
- minimal effective dose at 100 mg/kg [2]: > 100 mg/kg

- IC50 [1, 3]: 420 nM
Compound: CCCCc1nc(CC(=O)OC)c(Cl)n1Cc1ccc(NC(=O)c2ccccc2C(=O)O)cc1 [Example 3, Methyl 2-butyl-1-[4-(2-carboxybenzamido)benzyl]-5-chloroimidazole-4-acetate]
- minimal effective dose at 100 mg/kg ([2]; tested as sodium salt): > 100 mg/kg

- IC50 [1, 3]: 190 nM
Compound: CCCCc1nc(Cl)c(COC(C)=O)n1Cc1ccc(NC(=O)c2ccccc2C(=O)O)cc1 [Example 10]

- IC50 [1, 3]: 2100 nM
Compound: CCCCc1nc(Cl)c(CC(=O)OC)n1Cc1ccc(NS(=O)(=O)C(F)(F)F)cc1 [Example 21, Methyl 2-butyl-4-chloro-1-[4-(trifluoromethylsulfonamido)benzyl]imidazole-5-acetate]
- minimal effective dose at 10 mg/kg ([2]; tested as sodium salt): < 10 mg/kg
- minimal effective dose at 100 mg/kg ([2]; tested as sodium salt): > 100 mg/kg

- IC50 ([1]; Table 25): 3900 nM
Compound: CCCCc1nc(Cl)c(CC(=O)O)n1Cc1ccc(NS(=O)(=O)C(F)(F)F)cc1 [Example 25]

- IC50 ([1]; Table 25): 640 nM
Compound: CCCCc1nc(Cl)c(CC(=O)O)n1Cc1ccc(NC(=O)c2ccccc2NS(=O)(=O)C(F)(F)F)cc1 [Example 31, 2-Butyl-4-chloro-1-[4-((N-trifluoromethanesulfonyl)anthranilamido)benzyl]imidazole-5-acetic acid]

- IC50 [1, 3]: 430 nM
Compound: CCCCc1nc(Cl)c(CC(=O)O)n1Cc1ccc(NC(=O)c2ccccc2C(=O)O)cc1 [Example 32, 2-Butyl-1-[4-(2-carboxybenzamido)-benzyl]-4-chloroimidazole-5-acetic acid]

- IC50 ([1]; Table 25): 940 nM
Compound: CCCCc1nc(Cl)c(CC(=O)OC)n1Cc1ccc(NC(=O)c2cccc(NS(=O)(=O)C(F)(F)F)c2)cc1 [Example 33]

- IC50 ([1]; Table 25): 1100 nM
Compound: CCCCc1nc(Cl)c(Cc2nn[nH]n2)n1Cc1ccc(NC(=O)c2ccccc2NS(=O)(=O)C(F)(F)F)cc1 [Example 52]

- IC50 ([1]; Table 25): 4400 nM
Compound: COCCc1nc(Cl)c(CO)n1Cc1ccc(NC(=O)c2ccccc2NS(=O)(=O)C(F)(F)F)cc1 [Example 56, 4-Chloro-5-hydroxymethyl-2-(2-methoxyethyl)-1-[4-((N-trifluoromethanesulfonyl)anthranilamido)benzyl]imidazole]

- IC50 ([1]; Table 25): 1200 nM
Compound: CCCCCc1nccn1Cc1ccc(NC(=O)c2ccccc2NS(=O)(=O)C(F)(F)F)cc1 [Example 60]

- IC50 ([1]; Table 25): 5000 nM
Compound: O=C(Nc1ccc(Cn2ccnc2CC2CCCCC2)cc1)c1ccccc1NS(=O)(=O)C(F)(F)F [Example 61]

- IC50 [1, 3]: 9200 nM
Compound: CCc1nccn1Cc1ccc(NC(=O)c2ccccc2C(=O)O)cc1 [Example 62]

- IC50 ([1]; Table 25): 2800 nM
Compound: O=C(O)c1ccccc1C(=O)Nc1ccc(Cn2ccnc2CC2CCCCC2)cc1 [Example 71]

- IC50 [1, 3]: 2700 nM
Compound: CCCCc1nc(Cl)c(CNS(=O)(=O)C(F)(F)F)n1Cc1ccc(C(=O)c2ccccc2C(=O)O)cc1 [Example 217, 2-Butyl-1-[4-(2-carboxybenzoyl)benzyl]-4-chloro-5-[(trifluoromethylsulfonamido)methyl]imidazole]

— patent US5138069A (E. I. Du Pont de Nemours and Company, priority 1988, dated 1992)
